Reference: patent US5824687A, “Pyridinium salts and their use for the control of helicobacter bacteria” (BYK Gulden Lomberg Chemische Fabrik GmbH, priority 1993, dated 1998)

test system: Helicobacter pylori; experiment: Activity against Helicobacter pylori (MIC, Columbia agar (Oxoid), growth period of 4 days); type: cell-based; details: 96 h, methodology of Tomoyuki Iwahi et al.
Source text: The compounds according to the invention were investigated with respect to their activity against Helicobacter pylori following the methodology described by Tomoyuki Iwahi et al. (Antimicrobial Agents and Chemotherapy,1991, 490-496) using Columbia agar (Oxoid) and with a growth period of 4 days.

SMILES	MIC
Cc1c(C)[n+]2cccc(OCc3ccccc3)c2n1Cc1ccc(F)cc1 [Compound 3, 8-Benzyloxy-1-(4-fluorobenzyl)-2,3-dimethylimidazo-[1,2-a]pyridinium bromide]	≤ 10 µg/mL
COC(=O)c1ccc(Cn2c(C)c(C)[n+]3cccc(OCc4ccccc4)c23)cc1 [Compound 4, 8-Benzyloxy-1-(4-methoxycarbonylbenzyl)-2,3-dimethylimidazo[1,2-a]pyridinium bromide]	≤ 10 µg/mL
Cc1c(C)[n+]2cccc(OCc3ccccc3)c2n1CCc1ccccc1 [Compound 5, 8-Benzyloxy-2,3-dimethyl-1-phenethylimidazo[1,2-a]pyridinium bromide]	≤ 10 µg/mL
Cc1c(CC#N)[n+]2cccc(OCc3ccccc3)c2n1CCc1ccccc1 [Compound 6, 8-Benzyloxy-3-cyanomethyl-2-methyl-1-phenethylimidazo[1,2-a]pyridinium bromide]	≤ 10 µg/mL
C#CCc1c(C)n(CCc2ccccc2)c2c(OCc3ccccc3)ccc[n+]12 [Compound 7, 8-Benzyloxy-2-methyl-1-phenethyl-3-(2-propynyl)imidazo[1,2-a]pyridiniumbromide]	≤ 10 µg/mL
Cc1c(C)[n+]2cccc(OCc3ccccc3)c2n1Cc1cc(F)cc(F)c1 [Compound 10, 8-Benzyloxy-1-(3,5-difluorobenzyl)-2,3-dimethylimidazo[1,2-a]pyridiniumbromide]	≤ 10 µg/mL
Cc1c(C)[n+]2cccc(OCc3ccccc3)c2n1Cc1ccc2ccccc2c1 [Compound 12, 8-Benzyloxy-2,3-dimethyl-1-(2-naphthylmethyl)imidazo[1,2-a]pyridinium bromide]	≤ 10 µg/mL
Cc1c(C)[n+]2cccc(OCc3ccccc3)c2n1Cc1cccc(C#N)c1 [Compound 13, 8-Benzyloxy-1-(3-cyanobenzyl)-2,3-dimethylimidazo[1,2-a]pyridinium bromide]	≤ 10 µg/mL
Cc1c(C)[n+]2cccc(OCc3ccccc3)c2n1Cc1ccc(-c2ccccc2)cc1 [Compound 18, 8-Benzyloxy-1-(4-biphenylmethyl)-2,3-dimethylimidazo[1,2-a]pyridinium bromide]	≤ 10 µg/mL
